Reference: patent US7838674B2, “Tetracyclic lactame derivatives” (Novartis AG, priority 2007, dated 2010)
Where a name gives a salt, the structure may show the parent alone.

Each molecule was assayed against human MK2 (Homo sapiens, UniProt P49137) (assay: MAPKAPK2 kinase assay (TR-FRET, Hsp27 peptide substrate)).
human MK2, sequence (P49137 whole entry): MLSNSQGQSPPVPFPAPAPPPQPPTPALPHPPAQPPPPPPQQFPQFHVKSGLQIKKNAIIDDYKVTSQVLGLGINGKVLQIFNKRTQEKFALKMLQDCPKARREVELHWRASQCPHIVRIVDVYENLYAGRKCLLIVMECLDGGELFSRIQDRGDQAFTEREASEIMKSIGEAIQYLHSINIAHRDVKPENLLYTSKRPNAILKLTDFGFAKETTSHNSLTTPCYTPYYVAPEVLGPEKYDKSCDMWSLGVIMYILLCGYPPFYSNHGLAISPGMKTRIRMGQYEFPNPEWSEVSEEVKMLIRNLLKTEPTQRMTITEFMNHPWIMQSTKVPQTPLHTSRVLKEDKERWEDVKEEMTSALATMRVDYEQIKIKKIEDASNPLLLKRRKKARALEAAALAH

Row | SMILES | IC50 [nM]
1 | COc1ccc(-c2cc3c(cn2)CCc2c-3nn3c2C(=O)NC2(CN(C(C)=O)C2)C3)cc1 [Example 12, 2-(1-Acetyl-3-amino-azetidin-3-ylmethyl)-8-(4-methoxy-phenyl)-4,5-dihydro-2H-1,2,7-triaza-cyclopenta[a]naphthalene-3-carboxylic acid lactame] | > 10
2 | O=C1NC2(CC2)Cc2[nH]c3c(c21)CCc1cnc(-c2ccc(Oc4ccc(F)cc4F)nc2)cc1-3 [Example 95, 2-(1-Amino-cyclopropylmethyl)-8-[6-(2,4-difluoro-phenoxy)-pyridin-3-yl]-4,5-dihydro-1H-pyrrolo[2,3-f]isoquinoline-3-carboxylic acid lactam] | 100
3 | CCOc1ccc(-c2cc3c(cn2)CCc2c-3[nH]c3c2C(=O)NC2(CC2)C3)cn1 [Example 90, 2-(1-Amino-cyclopropylmethyl)-8-(6-ethoxy-pyridin-3-yl)-4,5-dihydro-1H-pyrrolo[2,3-f]isoquinoline-3-carboxylic acid lactam] | 91
4 | O=C1NC2(CCC2)Cc2[nH]c3c(c21)CCc1cnc(-c2ccc(OC4CCOCC4)nc2)cc1-3 [Example 108, 2-(1-Amino-cyclobutylmethyl)-8-[6-(tetrahydro-pyran-4-yloxy)-pyridin-3-yl]-4,5-dihydro-1H-pyrrolo[2,3-f]isoquinoline-3-carboxylic acid lactam] | 49
5 | O=C1NC2(CC2)Cc2[nH]c3c(c21)CCc1cnc(-c2cncc(OC4CCOCC4)c2)cc1-3 [Example 94, 2-(1-Amino-cyclopropylmethyl)-8-[5-(tetrahydro-pyran-4-yloxy)-pyridin-3-yl]-4,5-dihydro-1H-pyrrolo[2,3-f]isoquinoline-3-carboxylic acid lactam] | 53
6 | O=C1NC2(CC2)Cn2nc3c(c21)CCc1cnc(/C=C/c2ccccc2)cc1-3 [Example 10, 2-(1-Amino-cyclopropylmethyl)-8-((E)-styryl)-4,5-dihydro-2H-1,2,7-triaza-cyclopenta[a]naphthalene-3-carboxylic acid lactame] | > 10
7 | O=C1NC2(CC2)Cc2[nH]c3c(c21)CCc1cnc(-c2cncc(F)c2)cc1-3 [Example 89, 2-(1-Amino-cyclopropylmethyl)-8-(5-fluoro-pyridin-3-yl)-4,5-dihydro-1H-pyrrolo[2,3-f]isoquinoline-3-carboxylic acid lactam] | 79

Further lines, results first:

Row | IC50 [nM] | SMILES
8 | 43 | Cn1c2c(c3c1-c1nc(-c4cccc(F)c4)ncc1CC3)C(=O)NC1(CNC1)C2 [Example 27, 2-(3-Amino-azetidin-3-ylmethyl)-8-(3-fluoro-phenyl)-1-methyl-4,5-dihydro-1H-1,7,9-triaza-cyclopenta[a]naphthalene-3-carboxylic acid lactam hydrochloride]
9 | 15 | CN(C)CCOc1ccc(-c2cc3c(cn2)CCc2c-3[nH]c3c2C(=O)NCC32CC2)cc1C#N [Example 308, 2-(2-Dimethylamino-ethoxy)-5-(7-oxo-10-spirocyclopropyl-6,7,8,9,10,11-hexahydro-5H-3,8,11-triaza-benzo[a]fluoren-2-yl)-benzonitrile]
10 | 14 | N#Cc1cc(-c2cc3c(cn2)CCc2c-3[nH]c3c2C(=O)NCC32CC2)ccc1N1CCOCC1 [Example 307, 2-Morpholin-4-yl-5-(7-oxo-10-spirocyclopropyl-6,7,8,9,10,11-hexahydro-5H-3,8,11-triaza-benzo[a]fluoren-2-yl)-benzonitrile]
11 | 15 | O=C1NC2(CNC2)Cc2[nH]c3c(c21)CCc1cnc(-c2cccc(F)c2)nc1-3 [Example 26, 2-(3-Amino-azetidin-3-ylmethyl)-8-(3-fluoro-phenyl)-4,5-dihydro-1H-1,7,9-triaza-cyclopenta[a]naphthalene-3-carboxylic acid lactam hydrochloride]
12 | 42 | COc1cncc(-c2cc3c(cn2)CCc2c-3[nH]c3c2C(=O)NC2(CC2)C3)c1 [Example 87, 2-(1-Amino-cyclopropylmethyl)-8-(5-methoxy-pyridin-3-yl)-4,5-dihydro-1H-pyrrolo[2,3-f]isoquinoline-3-carboxylic acid lactam]
